Measured values as given in PubChem BioAssay (NCI).
Values joined by “and” are separate entries in the source; they are usually repeats but may differ in a detail not shown here. Equal entries are not always repeated.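 Results reflect a 48-hour exposure of cells in 96-well plates to compound at five concentrations. GI50: concentration for 50% inhibition of growth. TGI is the concentration that stops growth completely.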

How the values were obtained:
Test in all cases: DTP human tumour cell line panel, 48 h
786-0 renal = tested on: 786-0 renal
A549 NSCLC = tested on: A549 NSCLC
HCT-15 colon = tested on: HCT-15 colon
HS 578T breast = tested on: HS 578T breast
K-562 leukemia = tested on: K-562 leukemia
MDA-MB-231 breast = tested on: MDA-MB-231 breast
MDA-MB-435 = tested on: MDA-MB-435
MOLT-4 leukemia = tested on: MOLT-4 leukemia
NCI-H23 lung = tested on: NCI-H23 lung
NCI-H522 lung = tested on: NCI-H522 lung
SK-MEL-5 melanoma = tested on: SK-MEL-5 melanoma
SW-620 colon = tested on: SW-620 colon
SNB-75 CNS = tested on: SNB-75 CNS

Compound	TGI (786-0 renal)	TGI (A549 NSCLC)	TGI (HCT-15 colon)	TGI (HS 578T breast)	TGI (K-562 leukemia)	TGI (MDA-MB-231 breast)	TGI (MDA-MB-435)	TGI (MOLT-4 leukemia)	TGI (NCI-H23 lung)	TGI (NCI-H522 lung)	TGI (SK-MEL-5 melanoma)	TGI (SW-620 colon)	GI50 (A549 NSCLC)	GI50 (HCT-15 colon)	GI50 (K-562 leukemia)	GI50 (MOLT-4 leukemia)	GI50 (NCI-H23 lung)	GI50 (SK-MEL-5 melanoma)	TGI (SNB-75 CNS)	GI50 (NCI-H522 lung)
N/C(=N/O)c1cn(C2OC(CO)C(O)C2O)c2ncnc(NO)c12 (stereo not given)	> 100 µM	> 100 µM	> 100 µM	> 100 µM	> 100 µM	5.05 µM	0.805 µM	0.395 µM	2.29 µM	0.392 µM	0.892 µM	> 46.1 µM	–	–	–	–	–	–	–	–
C=CCSC1=N/C(=C\c2ccco2)C(=O)N1CC=C	> 100 µM	> 100 µM	> 100 µM	> 100 µM	> 100 µM	> 100 µM	> 100 µM	> 100 µM	> 100 µM	> 100 µM	> 100 µM	> 100 µM	–	–	–	–	–	–	–	–
CC[n+]1c(/C=C/c2ccc(N(CCCl)CCCl)cc2)ccc2cc(Br)ccc21	10.1 µM	–	–	–	–	–	–	–	–	4.66 µM	–	14.7 µM	1370 µM	2520 µM	125 µM	109 µM	172 µM	135 µM	0.936 µM	–
CCOC(=O)C(NC(=O)Nc1ccccc1F)(OC)C(F)(F)F (stereo not given)	> 100 µM	> 100 µM	> 100 µM	> 100 µM	> 100 µM	–	> 100 µM	> 100 µM	> 100 µM	–	> 100 µM	> 100 µM	–	–	–	–	–	–	> 100 µM	–
CCCNc1c(Cl)cc(Cl)c2[nH]c3ccccc3c(=O)c12	> 100 µM	> 100 µM	> 100 µM	–	> 100 µM	> 100 µM	> 100 µM	> 100 µM	> 100 µM	> 100 µM	> 100 µM	> 100 µM	–	–	–	–	–	–	> 100 µM	–
CCOC(=O)c1cc(NC(=O)c2ccccc2)c(=O)n2c(cc3c(Cl)cccc32)c1O	> 100 µM	> 100 µM	> 100 µM	> 100 µM	> 100 µM	> 100 µM	> 100 µM	> 100 µM	> 100 µM	> 100 µM	> 100 µM	> 100 µM	–	–	–	–	–	–	–	–
CCOC(=O)CC(=O)Nc1c(C(=O)OCC)sc2nc(SC)nc(Nc3ccc(OC)c(OC)c3)c12	37 µM	> 100 µM	> 100 µM	> 100 µM	–	> 100 µM	> 100 µM	–	> 100 µM	34.1 µM	> 100 µM	> 100 µM	–	–	–	–	–	–	21.9 µM	–
Brc1ccc(C2(N3CCCCC3)CCCCC2)s1	> 100 µM	> 100 µM	–	> 100 µM	52.5 µM	> 100 µM	73.3 µM	34.2 µM	> 100 µM	> 100 µM	22.3 µM	> 100 µM	–	–	–	–	–	–	–	–
c1ccc2c(-c3ccnc(-c4c[nH]c5ccccc45)n3)c[nH]c2c1	4.6 µM	> 100 µM	> 100 µM	> 100 µM	> 100 µM	–	> 100 µM	5.84 µM	–	–	15 µM	25.9 µM	–	–	–	–	–	–	–	–
CSc1ccc(C=C2N=C(c3ccccc3)N(c3cc(C(=O)c4ccccc4)ccc3N3C(=O)/C(=C/c4ccc(SC)cc4)N=C3c3ccccc3)C2=O)cc1	> 100 µM	> 100 µM	> 100 µM	> 100 µM	> 100 µM	> 100 µM	> 100 µM	> 100 µM	–	–	> 100 µM	> 100 µM	–	–	–	–	–	–	61.5 µM	–
c1cc(-c2ccc(Oc3ccc(-c4ccncc4)cc3)cc2)ccn1	> 100 µM	> 100 µM	96.9 µM	> 69.9 µM	> 100 µM	> 100 µM	–	41.5 µM	> 34 µM	> 79.4 µM	5.52 µM	> 100 µM	–	–	–	–	–	–	> 73.7 µM	–
CCCCC[C@H]1CC=CC(=O)O1	13.3 µM	60.5 µM	20.9 µM	50.6 µM	> 100 µM	23 µM	23 µM	18.8 µM	> 100 µM	11.8 µM	21.3 µM	18.7 µM	–	–	–	–	–	–	–	–
COc1ccc([N+](=O)[O-])cc1[I+]c1cc([N+](=O)[O-])ccc1OC	> 100 µM	> 100 µM	> 100 µM	> 100 µM	> 100 µM	> 100 µM	49.3 µM	–	> 100 µM	> 100 µM	24.9 µM	> 100 µM	–	–	–	–	–	–	–	–
COc1cc(-c2c(C(C)=O)c(-c3ccccc3)n(C3OC(COC(C)=O)C(OC(C)=O)C(OC(C)=O)C3OC(C)=O)c(=S)c2C#N)ccc1O (stereo not given)	> 100 µM	> 100 µM	> 100 µM	> 100 µM	> 100 µM	–	> 100 µM	> 100 µM	> 100 µM	90.4 µM and > 100 µM	> 100 µM	> 100 µM	–	–	–	–	–	–	–	18.6 µM and 40.2 µM
O=C(CN1c2ccccc2Sc2ccccc21)n1cnc2ccccc21	> 100 µM	> 100 µM	> 100 µM	> 100 µM	> 100 µM	> 100 µM	> 100 µM	> 100 µM	> 100 µM	–	> 100 µM	> 100 µM	–	–	–	–	–	–	> 100 µM	–
CC(=O)NC1C(OCc2ccccc2)OC(CO)C(O)C1OCC(=O)NC(C)C(=O)NC(CCC(=O)Nc1ccc2c(c1)CN1C(=O)c3ccccc3C1=N2)C(N)=O (stereo not given)	> 100 µM	> 100 µM	> 100 µM	> 100 µM	> 100 µM	> 100 µM	> 100 µM	> 100 µM	> 100 µM	–	> 100 µM	> 100 µM	–	–	–	–	–	–	> 100 µM	–
COc1ccc(/C=N/Nc2nc3ccccc3c(=O)n2-c2ccccc2)cc1	> 100 µM	> 100 µM	> 100 µM	–	> 100 µM	> 100 µM	> 100 µM	> 100 µM	> 100 µM	> 100 µM	> 100 µM	> 100 µM	–	–	–	–	–	–	> 100 µM	–
COC1(CCO)CC=CCC1(CCO)OC (stereo not given)	> 100 µM	> 100 µM	> 100 µM	> 100 µM	> 100 µM	–	–	> 100 µM	–	> 100 µM	> 100 µM	> 100 µM	–	–	–	–	–	–	> 100 µM	–
O=C(O)C1CCCCN1CCc1c[nH]c2ccccc12 (stereo not given)	> 100 µM	> 100 µM	> 100 µM	–	> 100 µM	> 100 µM	> 100 µM	> 100 µM	> 100 µM	> 100 µM	–	> 100 µM	–	–	–	–	–	–	> 100 µM	–
